The values below come from patent US9233978B2, “6-fused heteroaryldihydropyrimidines for the treatment and prophylaxis of hepatitis B virus infection” (Hoffmann-La Roche Inc., priority 2014, dated 2016).

In brackets after ≈: the same amount, converted by molar mass. A value given as a limit tells only on which side of the number the result lay.

Data set [1] deals with HBV. Put plainly: Anti-HBV activity in vitro, HepG2.2.15 cells, extracellular HBV DNA by qPCR. Format: cell-based. As to conditions: Hepatitis B virus, HepG2.2.15, 120 h, HepG2.2.15 cells; HBV replication inhibited by 50%, extracellular HBV DNA by qPCR; five days after compound treatment; read-out: EC50. From the text: HepG2.2.15 and HepDE19 are stably-transfected cell lines containing the HBV genome. Both cell lines are derived from the hepatoblastoma cell line Hep G2 (American Type Culture Collection, ATCC® HB-8065™) by the published procedures described in references: MA Selles et al. Proc. Natl. Acad. Sci. USA 1987, 84, 1005-1009 and H Guo et al. Journal of Virology 2007, 81, 12472-12484, respectively. Both cell lines were maintained in Dulbecco's modified Eagle's medium (DMEM)-F12 medium supplemented with 10% fetal bovine serum, 100 U/mL penicillin, 100 μg/mL streptomycin, and 0.5 mg/mL of G418.
While HepG2.2.15 cells constitutively support HBV replication and production of virus particles, HepDE19 cells are inducible by tetracycline. Addition of 1 μg/mL tetracycline in culture medium suppresses HBV replication in HepDE19 cells, whereas switching to tetracycline-free medium resumes this process.
HepG2.2.15 cells were seeded into 96-well plates (3×10^4 cells in 100 μL media per well) and incubated overnight at 37° C. The test compounds were serially half-log diluted in DMSO, then diluted 100 times in culture media. 100 μL of diluted compounds were added into the plates to reach 0.5% final concentration of DMSO in every well. Five days after compound treatment, culture supernatant was collected for further analysis.
For quantitative PCR detection of extracellular HBV DNA, 100 μL of culture supernatant was collected and processed in MagNA Pure 96 Nucleic Acid Purification System (Roche Applied Science) for viral DNA extraction. The extracted samples were subjected to HBV DNA quantification by qPCR.
(Real-time PCR tracks product formation cycle by cycle.)

A short description of data set [2]: Human microsomal metabolic stability. The format is in vitro ADME. As to conditions: human microsomes 0.5 mg/mL, 1 μM test compound, NADPH, 37° C., pH 7.4, 0-30 minutes. On the procedure:
Human Microsomes (BD Gentest) were preincubated with test compound for 10 minutes at 37° C. in 100 mM phosphate buffer, pH 7.4. The reactions were initiated by adding NADPH or NADPH regenerating system to give a final incubation volume of 400 μL. For NADPH system, the final incubations contained 1 μM test compound, 0.5 mg/mL liver microsomal protein, 1 mM NADPH in 100 mM phosphate buffer, pH 7.4. For the NADPH regenerating system, the final incubations contained 1 μM test compound, 0.5 mg/mL liver microsomal protein, 3 mM glucose 6-phosphate, 1 mM NADP, 3 mM MgCl2 and 0.05 mg/mL glucose 6-phosphate dehydrogenase in 100 mM phosphate buffer, pH 7.4. After incubation times of 0, 3, 6, 9, 15 and 30 minutes at 37° C., 1 sample was obtained from each time point and 50 μL of each sample was removed and transferred to 150 μL of methanol solution which was maintained at 4° C. and contained 2 μM tolbutamide as internal standard. Following precipitation and centrifugation, the amount of compound remaining in the samples were determined by LC-MS/MS. Controls of no NADPH or no NADPH regenerating system at zero and 30 minutes were also prepared and analyzed.

A short description of data set [3]: Lysa solubility. Format: physicochemical. The settings on record: phosphate buffer, pH 6.5, aqueous buffer, thermodynamic from solid, 0.05 M phosphate buffer (pH 6.5). On the procedure:
Samples were prepared in duplicate from 10 mM DMSO stock solutions. After evaporation of DMSO with a centrifugal vacuum evaporator, the residue was solved in 0.05 M phosphate buffer (pH 6.5), stirred for one hour and shook for two hours. After one night, the solution was filtered using a microtiter filter plate. Then the filtrate and its 1/10 dilution were analyzed by direct UV measurement or by HPLC-UV. […] The results were in μg/mL. In case the percentage of sample measured in solution after evaporation divided by the calculated maximum of sample amount was over 80%, the solubility was reported as higher than this value.

What is called EC50 is the concentration giving half of the maximal effect. A word on the thermodynamic solubility: it is solubility found after equilibrating the solid with the medium. `CCOC(=O)C1=C(CN2CCN3C(=O)N(C(C)(C)C(=O)O)C[C@@H]3C2)NC(c2nccs2)=N[C@H]1c1cccc(F)c1Cl` [Example 32, (R)-6-[(S)-2-(1-Carboxy-1-methyl-ethyl)-3-oxo-hexahydro-imidazo[1,5-a]pyrazin-7-ylmethyl]-4-(2-chloro-3-fluoro-phenyl)-2-thiazol-2-yl-1,4-dihydro-pyrimidine-5-carboxylic acid ethyl ester]: the EC50 in data set [1] was determined as 199 nM. The “Human Microsomal Clearance” value in data set [2] was 1.6 mL/min/kg. In addition, the solubility (thermodynamic) in data set [3] is more than 701 µg/mL.
In the case of `COC(=O)C1=C(CN2CCN3C(=O)N(CC(C)(C)C(=O)O)C[C@@H]3C2)NC(c2nccs2)=N[C@H]1c1ccccc1Cl` [Example 74, 3-[(8aS)-7-[[(4R)-4-(2-chlorophenyl)-5-methoxycarbonyl-2-thiazol-2-yl-1,4-dihydropyrimidin-6-yl]methyl]-3-oxo-5,6,8,8a-tetrahydro-1H-imidazo[1,5-a]pyrazin-2-yl]-2,2-dimethyl-propanoic acid], in data set [1], the EC50 was 36 nM. For the same compound, the “Human Microsomal Clearance” value in data set [2] stood at 1.0 mL/min/kg. The compound further displayed a thermodynamic solubility in data set [3] of more than 716 µg/mL.
Take `CCOC(=O)C1=C(CN2CCN3C(=O)N(CC(C)C(=O)O)C[C@@H]3C2)NC(c2nccs2)=N[C@H]1c1ccccc1Cl` (stereo partly drawn) [Example 20, 3-[(8aS)-7-[[(4R)-4-(2-chlorophenyl)-5-ethoxycarbonyl-2-thiazol-2-yl-1,4-dihydropyrimidin-6-yl]methyl]-3-oxo-5,6,8,8a-tetrahydro-1H-imidazo[1,5-a]pyrazin-2-yl]-2-methyl-propanoic acid]: in data set [1], the EC50 came to 52 nM. Moreover, the “Human Microsomal Clearance” value in data set [2] stood at 0.1 mL/min/kg. The thermodynamic solubility in data set [3] was more than 780 µg/mL.
For `COC(=O)C1=C(CN2CCN3C(=O)N([C@H]4CCC[C@H]4C(=O)O)C[C@@H]3C2)NC(c2nccs2)=N[C@H]1c1ccc(F)cc1Cl` [Example 51, (1R,2S)-2-[(8aS)-7-[[(4R)-4-(2-chloro-4-fluoro-phenyl)-5-methoxycarbonyl-2-thiazol-2-yl-1,4-dihydropyrimidin-6-yl]methyl]-3-oxo-5,6,8,8a-tetrahydro-1H-imidazo[1,5-a]pyrazin-2-yl]cyclopentanecarboxylic acid], the 50% effective concentration (EC50) in data set [1] worked out at 31 nM. Also, the “Human Microsomal Clearance” value in data set [2] came out at 2.0 mL/min/kg. For the same compound, in data set [3], the solubility (thermodynamic) worked out at 589 µg/mL (≈ 954 µM).
Consider `CCOC(=O)C1=C(CN2CCN3C(=O)N(C4(CC(=O)O)CC4)CC3C2)NC(c2nccs2)=N[C@H]1c1cccc(F)c1Cl` (stereo in doubt) [Example 48, 2-[1-[(8aR)-7-[[(4R)-4-(2-chloro-3-fluoro-phenyl)-5-ethoxycarbonyl-2-thiazol-2-yl-1,4-dihydropyrimidin-6-yl]methyl]-3-oxo-5,6,8,8a-tetrahydro-1H-imidazo[1,5-a]pyrazin-2-yl]cyclopropyl]acetic acid], for which the 50% effective concentration (EC50) in data set [1] stood at 22 nM. Further, the “Human Microsomal Clearance” value in data set [2] is reported as 3.8 mL/min/kg. The same compound displayed a solubility (thermodynamic) in data set [3] of more than 807 µg/mL.
On to `CCOC(=O)C1=C(CN2CCN3C(=O)N(CCOCC(=O)O)CC3C2)NC(c2nccs2)=N[C@H]1c1cccc(F)c1Cl` (stereo partly drawn) [Example 67, 2-[2-[7-[[(4R)-4-(2-chloro-3-fluoro-phenyl)-5-ethoxycarbonyl-2-thiazol-2-yl-1,4-dihydropyrimidin-6-yl]methyl]-3-oxo-5,6,8,8a-tetrahydro-1H-imidazo[1,5-a]pyrazin-2-yl]ethoxy]acetic acid], for which the EC50 in data set [1] is 438 nM. Moreover, the “Human Microsomal Clearance” value in data set [2] is listed as 4.7 mL/min/kg. Moreover, in data set [3], the thermodynamic solubility is more than 794 µg/mL.
For `COC(=O)C1=C(CN2CCN3C(=O)N(C(C)C)CC3(CC(=O)O)C2)NC(c2nccs2)=N[C@H]1c1ccc(F)cc1Cl` (stereo partly drawn) [Example 31, 2-[7-[[(4R)-4-(2-chloro-4-fluoro-phenyl)-5-methoxycarbonyl-2-thiazol-2-yl-1,4-dihydropyrimidin-6-yl]methyl]-2-isopropyl-3-oxo-1,5,6,8-tetrahydroimidazo[1,5-a]pyrazin-8a-yl]acetic acid], in data set [1], the EC50 amounted to 100 nM. For the same compound, the “Human Microsomal Clearance” value in data set [2] was determined as 0.3 mL/min/kg. In data set [3], this compound had a thermodynamic solubility of more than 775 µg/mL.
Turning to `COC(=O)C1=C(CN2CCN3C(=O)N(C4CCC(C(=O)O)CC4)C[C@@H]3C2)NC(c2nccs2)=N[C@H]1c1ccc(F)cc1Cl` (stereo partly drawn) [Example 72, 4-[(8aS)-7-[[(4R)-4-(2-chloro-4-fluoro-phenyl)-5-methoxycarbonyl-2-thiazol-2-yl-1,4-dihydropyrimidin-6-yl]methyl]-3-oxo-5,6,8,8a-tetrahydro-1H-imidazo[1,5-a]pyrazin-2-yl]cyclohexanecarboxylic acid], the EC50 in data set [1] worked out at 9 nM. In addition, the “Human Microsomal Clearance” value in data set [2] is given as 5.2 mL/min/kg. In addition, the thermodynamic solubility in data set [3] amounted to 551 µg/mL (≈ 873 µM).
As to `CCOC(=O)C1=C(CN2CCN3C(=O)N([C@@H]4CCCC4C(=O)O)C[C@@H]3C2)NC(c2nccs2)=N[C@H]1c1cccc(F)c1Cl` (stereo in doubt) [Example 50, (1R,2R)-2-[(8aS)-7-[[(4R)-4-(2-chloro-3-fluoro-phenyl)-5-ethoxycarbonyl-2-thiazol-2-yl-1,4-dihydropyrimidin-6-yl]methyl]-3-oxo-5,6,8,8a-tetrahydro-1H-imidazo[1,5-a]pyrazin-2-yl]cyclopentanecarboxylic acid], the half-maximal effective concentration (EC50) in data set [1] came out at 15 nM. For the same compound, the “Human Microsomal Clearance” value in data set [2] is reported as 3.6 mL/min/kg. The compound also yielded a solubility (thermodynamic) in data set [3] of 339 µg/mL (≈ 537 µM).
For `CCOC(=O)C1=C(CN2CCN3C(=O)N(CCCC(=O)O)C[C@@H]3C2)NC(c2nccs2)=N[C@H]1c1cccc(F)c1Cl` [Example 53, 4-[(8aS)-7-[[(4R)-4-(2-chloro-3-fluoro-phenyl)-5-ethoxycarbonyl-2-thiazol-2-yl-1,4-dihydropyrimidin-6-yl]methyl]-3-oxo-5,6,8,8a-tetrahydro-1H-imidazo[1,5-a]pyrazin-2-yl]butanoic acid], in that order: 19 nM, 5.1 mL/min/kg and more than 723 µg/mL.
`CCOC(=O)C1=C(CN2CCN3C(=O)N(CCCOCC(=O)O)CC3C2)NC(c2nccs2)=N[C@H]1c1cccc(F)c1Cl` (stereo partly drawn) [Example 68, 2-[3-[7-[[(4R)-4-(2-chloro-3-fluoro-phenyl)-5-ethoxycarbonyl-2-thiazol-2-yl-1,4-dihydropyrimidin-6-yl]methyl]-3-oxo-5,6,8,8a-tetrahydro-1H-imidazo[1,5-a]pyrazin-2-yl]propoxy]acetic acid]: in data set [1], the EC50 turned out to be 143 nM. For the same compound, the “Human Microsomal Clearance” value in data set [2] came out at 4.5 mL/min/kg. In data set [3], this compound displayed a solubility (thermodynamic) of more than 794 µg/mL.
For `COC(=O)C1=C(CN2CCN3C(=O)OC(C)(C)[C@]3(CC(=O)O)C2)NC(c2nccs2)=N[C@H]1c1ccc(F)cc1Cl` (single isomer, unassigned) [Example 90A], the EC50 in data set [1] was 96 nM. The “Human Microsomal Clearance” value in data set [2] is 0.3 mL/min/kg.
For `CCOC(=O)C1=C(CN2CCN3C(=O)N(C4CC4)C[C@H]3[C@@H]2C(=O)O)NC(c2nccs2)=N[C@H]1c1cccc(F)c1Cl` (single isomer, unassigned) [Example 82A], the EC50 in data set [1] is 145 nM. In addition, the “Human Microsomal Clearance” value in data set [2] came out at 1.7 mL/min/kg.
As for `COC(=O)C1=C(CN2CCN3C(=O)N(c4cccc(C(=O)O)c4)C[C@@H]3C2)NC(c2nccs2)=N[C@H]1c1ccc(F)cc1Cl` [Example 29, (R)-6-[(S)-2-(3-Carboxy-phenyl)-3-oxo-hexahydro-imidazo[1,5-a]pyrazin-7-ylmethyl]-4-(2-chloro-4-fluoro-phenyl)-2-thiazol-2-yl-1,4-dihydro-pyrimidine-5-carboxylic acid methyl ester], the EC50 in data set [1] turned out to be 7 nM. Also, in data set [2], the “Human Microsomal Clearance” value turned out to be 0.3 mL/min/kg.
